Results reported in patent US9938261B2, “Heterocyclic compounds and methods of use thereof” (AMBIT BIOSCIENCES CORPORATION, priority 2011, dated 2018).

Legend:
FLT3 = target: T1, FLT3 (Homo sapiens, UniProt P36888); experiment: Competition binding assay, FLT3 Kd
T1 construct: made in house
T1 sequence (P36888 27-993): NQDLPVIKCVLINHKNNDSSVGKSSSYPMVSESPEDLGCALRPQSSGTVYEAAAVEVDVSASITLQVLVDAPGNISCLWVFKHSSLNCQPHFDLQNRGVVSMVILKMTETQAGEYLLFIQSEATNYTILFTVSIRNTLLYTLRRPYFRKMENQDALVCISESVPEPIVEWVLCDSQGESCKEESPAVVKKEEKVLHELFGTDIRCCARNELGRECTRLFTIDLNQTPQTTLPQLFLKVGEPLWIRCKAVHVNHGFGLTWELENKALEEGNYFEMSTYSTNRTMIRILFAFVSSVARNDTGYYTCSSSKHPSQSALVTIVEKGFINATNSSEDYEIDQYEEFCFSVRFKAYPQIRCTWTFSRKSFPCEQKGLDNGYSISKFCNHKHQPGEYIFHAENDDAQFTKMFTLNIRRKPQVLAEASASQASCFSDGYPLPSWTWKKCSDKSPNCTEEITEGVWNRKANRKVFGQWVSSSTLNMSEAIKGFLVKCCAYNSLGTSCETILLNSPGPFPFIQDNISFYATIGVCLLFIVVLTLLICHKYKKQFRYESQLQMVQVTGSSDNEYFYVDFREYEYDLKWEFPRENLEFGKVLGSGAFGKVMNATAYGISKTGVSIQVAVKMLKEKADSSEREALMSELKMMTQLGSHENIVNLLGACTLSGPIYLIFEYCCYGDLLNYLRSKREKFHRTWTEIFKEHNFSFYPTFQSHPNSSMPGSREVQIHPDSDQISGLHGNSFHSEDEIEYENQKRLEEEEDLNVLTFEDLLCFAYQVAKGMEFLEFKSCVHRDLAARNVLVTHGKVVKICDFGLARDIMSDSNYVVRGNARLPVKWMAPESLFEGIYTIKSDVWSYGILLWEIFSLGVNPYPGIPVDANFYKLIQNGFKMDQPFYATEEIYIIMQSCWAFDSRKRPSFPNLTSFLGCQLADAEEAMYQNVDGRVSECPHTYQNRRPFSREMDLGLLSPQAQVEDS
Procedure, shortened: (§1)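 Phage-fused or HEK-293/DNA-tagged kinase + ligand-coated streptavidin beads + compound, 1 h RT with shaking. Wash, elute with free ligand 30 min RT, qPCR of eluted kinase. Kd: 11-point 3-fold series.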

CSF1R = CSF1R (Homo sapiens, UniProt P07333); experiment: HEK293 CSF1R phosphorylation MSD assay; format: cell-based; design: expressed in transfected cells; host or cells: HEK293; details: 2 h compound, human M-CSF 50 ng/mL for 5 min; read-out: HEK293 pCSF1R M-CSF MSD:IC50
Procedure, shortened: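 Ligand-induced CSF1R autophosphorylation was measured by MSD sandwich assay: CSF1R-FKBP from lysates captured via FK506, anti-phosphotyrosine readout. Cells were exposed to compound for 2 h (9-point, half-log, 0.5% DMSO) before 5 min 50 ng/mL M-CSF. Reported IC50 is the mean of duplicate-plate IC50s relative to DMSO control.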

KIT = target: T2, KIT (Homo sapiens, UniProt P10721); experiment: Competition binding assay, KIT Kd
T2 construct: made in house
Procedure, shortened: as §1

PDGFRβ = target: T3, PDGFRβ (Homo sapiens, UniProt P09619); experiment: Competition binding assay, PDGFRβ Kd
T3 construct: made in house
Procedure, shortened: as §1

T3 sequence (P09619 33-1106): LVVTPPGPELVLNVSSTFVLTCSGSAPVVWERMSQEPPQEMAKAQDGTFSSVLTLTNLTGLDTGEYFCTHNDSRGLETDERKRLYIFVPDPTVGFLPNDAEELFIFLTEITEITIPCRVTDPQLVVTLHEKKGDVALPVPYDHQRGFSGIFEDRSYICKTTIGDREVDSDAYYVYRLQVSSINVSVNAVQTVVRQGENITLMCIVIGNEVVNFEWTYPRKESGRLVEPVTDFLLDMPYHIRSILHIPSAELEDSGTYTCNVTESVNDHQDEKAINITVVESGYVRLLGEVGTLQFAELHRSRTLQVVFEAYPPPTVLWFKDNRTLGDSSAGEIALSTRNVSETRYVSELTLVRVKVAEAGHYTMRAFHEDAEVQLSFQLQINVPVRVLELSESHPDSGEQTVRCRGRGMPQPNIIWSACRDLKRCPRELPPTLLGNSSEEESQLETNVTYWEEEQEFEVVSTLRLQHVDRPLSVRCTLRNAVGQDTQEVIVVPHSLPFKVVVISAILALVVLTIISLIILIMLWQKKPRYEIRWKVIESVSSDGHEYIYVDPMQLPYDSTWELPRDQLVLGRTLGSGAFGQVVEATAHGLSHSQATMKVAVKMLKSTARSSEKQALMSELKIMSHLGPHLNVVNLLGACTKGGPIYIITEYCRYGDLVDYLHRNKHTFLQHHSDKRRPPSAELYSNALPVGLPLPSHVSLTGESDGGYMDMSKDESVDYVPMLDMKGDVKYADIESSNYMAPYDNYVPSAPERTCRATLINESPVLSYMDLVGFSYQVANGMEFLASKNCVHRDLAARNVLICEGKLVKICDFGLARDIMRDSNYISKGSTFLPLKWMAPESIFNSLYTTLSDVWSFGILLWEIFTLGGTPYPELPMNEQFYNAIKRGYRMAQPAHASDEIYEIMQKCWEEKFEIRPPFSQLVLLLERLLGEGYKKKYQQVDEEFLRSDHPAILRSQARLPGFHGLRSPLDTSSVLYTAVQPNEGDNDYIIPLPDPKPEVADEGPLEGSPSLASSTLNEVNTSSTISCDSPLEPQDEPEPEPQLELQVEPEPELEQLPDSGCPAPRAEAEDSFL
Chain of CSF1R (P07333 20-972): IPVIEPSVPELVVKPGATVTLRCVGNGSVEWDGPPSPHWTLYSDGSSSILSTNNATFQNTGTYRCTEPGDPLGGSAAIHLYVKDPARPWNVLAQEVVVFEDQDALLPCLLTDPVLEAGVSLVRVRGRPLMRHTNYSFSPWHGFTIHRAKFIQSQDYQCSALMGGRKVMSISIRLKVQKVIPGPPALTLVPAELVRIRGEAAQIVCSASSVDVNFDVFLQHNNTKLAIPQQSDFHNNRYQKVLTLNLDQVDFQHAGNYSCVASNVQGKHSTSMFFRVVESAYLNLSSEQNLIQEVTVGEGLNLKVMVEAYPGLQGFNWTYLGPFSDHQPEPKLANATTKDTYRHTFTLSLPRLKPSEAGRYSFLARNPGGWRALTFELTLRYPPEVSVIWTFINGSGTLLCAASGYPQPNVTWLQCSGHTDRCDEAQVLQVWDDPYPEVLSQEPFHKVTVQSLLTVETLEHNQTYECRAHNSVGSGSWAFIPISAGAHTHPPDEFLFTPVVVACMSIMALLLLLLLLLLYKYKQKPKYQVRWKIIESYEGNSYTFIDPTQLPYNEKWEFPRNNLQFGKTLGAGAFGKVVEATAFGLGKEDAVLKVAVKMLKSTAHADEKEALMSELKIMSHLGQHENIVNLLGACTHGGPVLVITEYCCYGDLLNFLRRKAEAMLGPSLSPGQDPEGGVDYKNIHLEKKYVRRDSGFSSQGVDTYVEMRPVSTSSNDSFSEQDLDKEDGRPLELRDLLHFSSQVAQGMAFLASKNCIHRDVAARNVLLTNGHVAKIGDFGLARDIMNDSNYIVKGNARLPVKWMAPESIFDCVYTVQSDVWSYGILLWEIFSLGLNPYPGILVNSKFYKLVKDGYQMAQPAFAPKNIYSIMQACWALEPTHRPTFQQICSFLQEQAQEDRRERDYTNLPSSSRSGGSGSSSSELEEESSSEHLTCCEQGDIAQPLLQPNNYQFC
T2 sequence (P10721 26-976): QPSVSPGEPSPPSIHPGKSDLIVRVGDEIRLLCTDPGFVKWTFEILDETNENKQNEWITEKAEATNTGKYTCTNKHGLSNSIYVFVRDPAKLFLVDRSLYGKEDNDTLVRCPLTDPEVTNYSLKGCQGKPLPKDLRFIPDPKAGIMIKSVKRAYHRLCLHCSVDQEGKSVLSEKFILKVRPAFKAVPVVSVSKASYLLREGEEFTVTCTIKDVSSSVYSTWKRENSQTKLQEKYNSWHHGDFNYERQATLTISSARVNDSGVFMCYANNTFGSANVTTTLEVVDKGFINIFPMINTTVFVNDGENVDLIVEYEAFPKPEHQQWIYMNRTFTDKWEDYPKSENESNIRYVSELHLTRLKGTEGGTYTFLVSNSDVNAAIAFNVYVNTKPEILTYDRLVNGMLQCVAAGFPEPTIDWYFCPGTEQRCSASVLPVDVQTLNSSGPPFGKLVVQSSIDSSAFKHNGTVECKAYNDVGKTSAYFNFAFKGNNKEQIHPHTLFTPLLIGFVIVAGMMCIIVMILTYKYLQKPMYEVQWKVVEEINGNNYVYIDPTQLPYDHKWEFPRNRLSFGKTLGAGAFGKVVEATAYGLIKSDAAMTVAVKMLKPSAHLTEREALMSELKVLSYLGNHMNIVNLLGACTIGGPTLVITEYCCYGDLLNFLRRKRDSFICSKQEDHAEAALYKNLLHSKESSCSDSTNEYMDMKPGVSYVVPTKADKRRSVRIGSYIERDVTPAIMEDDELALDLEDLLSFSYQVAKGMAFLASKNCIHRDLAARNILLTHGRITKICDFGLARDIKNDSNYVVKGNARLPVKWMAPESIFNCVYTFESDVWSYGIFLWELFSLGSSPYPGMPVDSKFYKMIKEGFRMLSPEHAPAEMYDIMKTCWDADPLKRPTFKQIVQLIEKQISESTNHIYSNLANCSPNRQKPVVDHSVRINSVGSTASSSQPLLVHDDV

Row | Kd (FLT3) | IC50 (CSF1R) | Kd (KIT) | Kd (PDGFRβ) | SMILES
1 | ≤ 200 nM | ≤ 50 nM | ≤ 100 nM | ≤ 50 nM | COc1cc2ncn(Cc3ccc4nc(N[C@@H]5CCCCC[C@H]5O)sc4c3)c2cc1OC (racemic) [Example 50, (±)-2-((6-((5,6-dimethoxy-1H-benzo[d]imidazol-1-yl)methyl)benzo[d]thiazol-2-yl)amino)cycloheptanol]
2 | 1000 to 5000 nM | 50 to 200 nM | 100 to 500 nM | 50 to 500 nM | CS(=O)(=O)O.O[C@@H]1CCCC[C@H]1Nc1nc2ccc(Cn3cnc4cccnc43)cc2s1 [Example 3, (1R,2R)-2-((6-((3H-imidazo[4,5-b]pyridin-3-yl)methyl)benzo[d]thiazol-2-yl)amino)cyclohexanol methanesulfonic acid]
3 | 200 to 1000 nM | 50 to 200 nM | ≤ 100 nM | ≤ 50 nM | COc1cc2ncn(Cc3ccc4nc(N[C@@H](C)C5CCCCC5)sc4c3)c2cc1OC [Example 33, (S)—N-(1-cyclohexylethyl)-6-((5,6-dimethoxy-1H-benzo[d]imidazol-1-yl)methyl)benzo[d]thiazol-2-amine]
4 | ≤ 200 nM | 50 to 200 nM | 100 to 500 nM | 50 to 500 nM | COc1cc2ncn(Cc3ccc4nc(N[C@@H]5CCCC[C@H]5O)oc4c3)c2cc1OC [Example 34, (1R,2R)-2-((6-((5,6-dimethoxy-1H-benzo[d]imidazol-1-yl)methyl)benzo[d]oxazol-2-yl)amino)cyclohexanol]
5 | ≤ 200 nM | ≤ 50 nM | ≤ 100 nM | ≤ 50 nM | COc1cc2ncn(Cc3ccc4nc(NCC5CCCCC5)oc4c3)c2cc1OC [Example 35, N-(cyclohexylmethyl)-6-((5,6-dimethoxy-1H-benzo[d]imidazol-1-yl)methyl)benzo[d]oxazol-2-amine]
6 | > 5000 nM | 50 to 200 nM | 500 to 2000 nM | > 2000 nM | Cn1cc(-c2cn(Cc3ccc4nc(N[C@@H]5CCCC[C@H]5O)sc4c3)cn2)cn1 [Example 36, (1R,2R)-2-((6-((4-(1-methyl-1H-pyrazol-4-yl)-1H-imidazol-1-yl)methyl)benzo[d]thiazol-2-yl)amino)cyclohexanol]
7 | > 5000 nM | > 500 nM | > 2000 nM | > 2000 nM | CNC(=O)c1cn(Cc2ccc3nc(N[C@@H]4CCCC[C@H]4O)sc3c2)cn1 [Example 37, 1-((2-(((1R,2R)-2-hydroxycyclohexyl)amino)benzo[d]thiazol-6-yl)methyl)-N-methyl-1H-imidazole-4-carboxamide]
8 | > 5000 nM | 200 to 500 nM | 500 to 2000 nM | > 2000 nM | O[C@@H]1CCCC[C@H]1Nc1nc2ccc(Cc3cnc4ccccn34)cc2s1 [Example 38, (1R,2R)-2-((6-(imidazo[1,2-a]pyridin-3-ylmethyl)benzo[d]thiazol-2-yl)amino)cyclohexanol]
9 | ≤ 200 nM | ≤ 50 nM | ≤ 100 nM | ≤ 50 nM | Cn1cc(-c2cnc3c(c2)ncn3Cc2ccc3nc(N[C@@H]4CCCC[C@H]4O)sc3c2)cn1 [Example 39, (1R,2R)-2-((6-((6-(1-methyl-1H-pyrazol-4-yl)-3H-imidazo[4,5-b]pyridin-3-yl)methyl)benzo[d]thiazol-2-yl)amino)cyclohexanol]
10 | ≤ 200 nM | ≤ 50 nM | ≤ 100 nM | ≤ 50 nM | O[C@@H]1CCCC[C@H]1Nc1nc2ccc(Cn3cnc4cc(-c5cccnc5)cnc43)cc2s1 [Example 40, (1R,2R)-2-((6-((6-(pyridin-3-yl)-3H-imidazo[4,5-b]pyridin-3-yl)methyl)benzo[d]thiazol-2-yl)amino)cyclohexanol]
11 | 200 to 1000 nM | 50 to 200 nM | 100 to 500 nM | 500 to 2000 nM | COc1cc2c(cc1Br)ncn2Cc1ccc2nc(N[C@@H]3CCCC[C@H]3O)sc2c1 [Example 41, (1R,2R)-2-((6-((5-bromo-6-methoxy-1H-benzo[d]imidazol-1-yl)methyl)benzo[d]thiazol-2-yl)amino)cyclohexanol]
12 | 1000 to 5000 nM | 50 to 200 nM | ≤ 100 nM | ≤ 50 nM | O[C@@H]1Cc2ccccc2[C@H]1Nc1nc2ccc(Cn3cnc4cc(Br)cnc43)cc2s1 [Example 42, (1R,2R)-1-((6-((6-bromo-3H-imidazo[4,5-b]pyridin-3-yl)methyl)benzo[d]thiazol-2-yl)amino)-2,3-dihydro-1H-inden-2-ol]
13 | 1000 to 5000 nM | 50 to 200 nM | 100 to 500 nM | 50 to 500 nM | N#Cc1cnc2c(c1)ncn2Cc1ccc2nc(N[C@@H]3CCCC[C@H]3O)sc2c1 [Example 43, 3-((2-(((1R,2R)-2-hydroxycyclohexyl)amino)benzo[d]thiazol-6-yl)methyl)-3H-imidazo[4,5-b]pyridine-6-carbonitrile]
14 | > 5000 nM | 50 to 200 nM | 500 to 2000 nM | 500 to 2000 nM | COc1ccn2c(Cc3ccc4nc(N[C@@H]5CCCC[C@H]5O)sc4c3)cnc2c1 [Example 44, (1R,2R)-2-((6-((7-methoxyimidazo[1,2-a]pyridin-3-yl)methyl)benzo[d]thiazol-2-yl)amino)cyclohexanol]
15 | 200 to 1000 nM | ≤ 50 nM | ≤ 100 nM | ≤ 50 nM | O[C@@H]1CCCC[C@H]1Nc1nc2ccc(Cn3cnc4cc(C5CC5)cnc43)cc2s1 [Example 45, (1R,2R)-2-((6-((6-cyclopropyl-3H-imidazo[4,5-b]pyridin-3-yl)methyl)benzo[d]thiazol-2-yl)amino)cyclohexanol]
16 | 1000 to 5000 nM | 50 to 200 nM | 100 to 500 nM | ≤ 50 nM | O[C@@H]1Cc2ccccc2[C@H]1Nc1nc2ccc(Cn3cnc4cccnc43)cc2s1 [Example 46, (1R,2R)-1-((6-((3H-imidazo[4,5-b]pyridin-3-yl)methyl)benzo[d]thiazol-2-yl)amino)-2,3-dihydro-1H-inden-2-ol]
17 | 200 to 1000 nM | 50 to 200 nM | ≤ 100 nM | 50 to 500 nM | COc1cc2ncn(Cc3ccc4nc(N[C@@H]5CCCC[C@H]5O)sc4c3)c2cc1Br [Example 47, (1R,2R)-2-((6-((6-bromo-5-methoxy-1H-benzo[d]imidazol-1-yl)methyl)benzo[d]thiazol-2-yl)amino)cyclohexanol]
18 | > 5000 nM | 50 to 200 nM | 500 to 2000 nM | 50 to 500 nM | O[C@@H]1CCCC[C@H]1Nc1nc2ccc(Cn3cnc4cncnc43)cc2s1 [Example 48, (1R,2R)-2-((6-((9H-purin-9-yl)methyl)benzo[d]thiazol-2-yl)amino)cyclohexanol]
19 | 1000 to 5000 nM | 200 to 500 nM | 500 to 2000 nM | 500 to 2000 nM | COc1cc2c(cc1Br)ncn2Cc1ccc2nc(N[C@@H]3c4ccccc4C[C@H]3O)sc2c1 [Example 49, (1R,2R)-1-((6-((5-bromo-6-methoxy-1H-benzo[d]imidazol-1-yl)methyl)benzo[d]thiazol-2-yl)amino)-2,3-dihydro-1H-inden-2-ol]
20 | ≤ 200 nM | ≤ 50 nM | ≤ 100 nM | ≤ 50 nM | COc1cc2c(cc1-c1cnn(C)c1)ncn2Cc1ccc2nc(N[C@@H]3CCCC[C@H]3O)sc2c1 [Example 51, (1R,2R)-2-((6-((6-methoxy-5-(1-methyl-1H-pyrazol-4-yl)-1H-benzo[d]imidazol-1-yl)methyl)benzo[d]thiazol-2-yl)amino)cyclohexanol]
21 | ≤ 200 nM | ≤ 50 nM | ≤ 100 nM | 50 to 500 nM | COc1cc2ncn(Cc3ccc4nc(N[C@@H]5CCCC[C@H]5O)sc4c3)c2cc1-c1cnn(C)c1 [Example 52, (1R,2R)-2-((6-((5-methoxy-6-(1-methyl-1H-pyrazol-4-yl)-1H-benzo[d]imidazol-1-yl)methyl)benzo[d]thiazol-2-yl)amino)cyclohexanol]
22 | 1000 to 5000 nM | ≤ 50 nM | 100 to 500 nM | 50 to 500 nM | COc1cc2ncn(Cc3ccc4nc(N[C@@H]5CCCC[C@H]5O)sc4c3)c2cc1C#N [Example 53, 1-((2-(((1R,2R)-2-hydroxycyclohexyl)amino)benzo[d]thiazol-6-yl)methyl)-5-methoxy-1H-benzo[d]imidazole-6-carbonitrile]
